From patent US20260184710A1, “CASITAS B-LINEAGE LYMPHOMA PROTOONCOGENE B (CBL-B) DEGRADING COMPOUNDS AND ASSOCIATED METHODS OF USE” (Arvinas Operations, Inc., priority 2022, published 2026)

target: T1, Cbl-b (Homo sapiens, UniProt Q13191); assay: Cbl-b Degradation Method B (Nano-Glo HiBiT lytic detection); type: cell-based; conditions: Cbl-b-HiBit KI Jurkat Cells, incubated at least 6-24 hours; half maximal degradation; read-out: Cbl-b Degredation Method B IC50
T1 construct: Cbl-b-HiBit KI Jurkat Cells were purchased from Promega; host or cells: Cbl-b-HiBiT knock-in Jurkat cells
T1 sequence (Q13191 whole entry): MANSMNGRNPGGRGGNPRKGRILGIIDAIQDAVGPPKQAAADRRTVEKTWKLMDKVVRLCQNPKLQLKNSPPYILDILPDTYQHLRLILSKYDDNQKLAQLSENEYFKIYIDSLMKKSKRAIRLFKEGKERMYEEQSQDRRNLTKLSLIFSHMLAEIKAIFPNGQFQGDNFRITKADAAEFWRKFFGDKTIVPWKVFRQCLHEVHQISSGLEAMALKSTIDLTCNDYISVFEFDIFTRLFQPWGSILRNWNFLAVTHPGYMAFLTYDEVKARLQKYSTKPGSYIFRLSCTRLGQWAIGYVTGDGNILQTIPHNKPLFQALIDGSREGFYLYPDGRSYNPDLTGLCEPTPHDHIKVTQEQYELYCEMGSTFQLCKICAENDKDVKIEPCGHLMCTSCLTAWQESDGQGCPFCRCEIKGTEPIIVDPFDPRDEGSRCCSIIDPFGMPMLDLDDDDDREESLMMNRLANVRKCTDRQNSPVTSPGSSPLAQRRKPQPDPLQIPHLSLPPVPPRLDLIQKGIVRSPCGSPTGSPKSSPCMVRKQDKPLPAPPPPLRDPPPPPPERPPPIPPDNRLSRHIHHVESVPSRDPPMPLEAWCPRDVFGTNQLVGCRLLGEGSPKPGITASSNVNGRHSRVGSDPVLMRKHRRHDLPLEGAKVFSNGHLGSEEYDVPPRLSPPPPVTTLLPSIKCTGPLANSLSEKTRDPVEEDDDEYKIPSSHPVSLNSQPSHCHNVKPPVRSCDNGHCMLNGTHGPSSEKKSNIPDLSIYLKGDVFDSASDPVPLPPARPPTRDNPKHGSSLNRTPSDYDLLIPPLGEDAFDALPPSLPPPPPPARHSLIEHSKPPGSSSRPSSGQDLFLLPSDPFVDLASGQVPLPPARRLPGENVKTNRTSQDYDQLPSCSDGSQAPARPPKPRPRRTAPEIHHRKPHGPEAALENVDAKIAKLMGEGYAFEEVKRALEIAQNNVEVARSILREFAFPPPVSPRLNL
In short: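 Cbl-b-HiBiT knock-in Jurkat cells (20,000/well) were treated after ~24 h plating with an 11-point 1:3 series for 6-24 h at 37° C. Remaining Cbl-b measured by Nano-Glo HiBiT lytic luminescence. DC50 and Dmax expressed as % of control.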

DC50, > 500 nM:
Cn1cnnc1CC1(c2cccc(N3Cc4c(cc(CN5CCC(CN(C)[C@H]6C[C@H](Oc7ccc8c(c7)C(=O)N(C7CCC(=O)NC7=O)C8=O)C6)CC5)cc4C(F)(F)F)C3=O)c2)COC1 (stereo partly drawn) [Example 60, 2-(2,6-dioxopiperidin-3-yl)-5-[(1r,3r)-3-{methyl[(1-{[2-(3-{3-[(4-methyl-4H-1,2,4-triazol-3-yl)methyl]oxetan-3-yl}phenyl)-3-oxo-7-(trifluoromethyl)-2,3-dihydro-1H-isoindol-5-yl]methyl}piperidin-4-yl)methyl]amino}cyclobutoxy]-2,3-dihydro-1H-isoindole-1,3-dione]
Cn1cnnc1CC1(c2cccc(N3Cc4c(cc(CN5CCC(CCCN6CCN(c7ccc8c(c7)C(=O)N(C7CCC(=O)NC7=O)C8=O)CC6)CC5)cc4C(F)(F)F)C3=O)c2)COC1 (stereo not drawn) [Example 61, 2-(2,6-dioxopiperidin-3-yl)-5-{4-[3-(1-{[2-(3-{3-[(4-methyl-4H-1,2,4-triazol-3-yl)methyl]oxetan-3-yl}phenyl)-3-oxo-7-(trifluoromethyl)-2,3-dihydro-1H-isoindol-5-yl]methyl}piperidin-4-yl)propyl]piperazin-1-yl}-2,3-dihydro-1H-isoindole-1,3-dione]
Cn1cnnc1CC1(c2cccc(N3Cc4c(cc(CN5CCN(c6cc(N7CCN(c8ccc9c(c8)C(=O)N(C8CCC(=O)NC8=O)C9=O)CC7)ncn6)CC5)cc4C(F)(F)F)C3=O)c2)COC1 (stereo not drawn) [Example 62, 2-(2,6-dioxopiperidin-3-yl)-5-{4-[6-(4-{[2-(3-{3-[(4-methyl-4H-1,2,4-triazol-3-yl)methyl]oxetan-3-yl}phenyl)-3-oxo-7-(trifluoromethyl)-2,3-dihydro-1H-isoindol-5-yl]methyl}piperazin-1-yl)pyrimidin-4-yl]piperazin-1-yl}-2,3-dihydro-1H-isoindole-1,3-dione]
Cn1cnnc1CC1(c2cccc(N3Cc4c(cc(CN5CCN(CCN(C)[C@H]6C[C@H](Oc7ccc8c(c7)C(=O)N(C7CCC(=O)NC7=O)C8=O)C6)CC5)cc4C(F)(F)F)C3=O)c2)COC1 (stereo partly drawn) [Example 63, 2-(2,6-dioxopiperidin-3-yl)-5-[(1r,3r)-3-{methyl[2-(4-{[2-(3-{3-[(4-methyl-4H-1,2,4-triazol-3-yl)methyl]oxetan-3-yl}phenyl)-3-oxo-7-(trifluoromethyl)-2,3-dihydro-1H-isoindol-5-yl]methyl}piperazin-1-yl)ethyl]amino}cyclobutoxy]-2,3-dihydro-1H-isoindole-1,3-dione]
Cn1cnnc1CC1(c2cccc(N3Cc4c(cc(CN5CC(C6CN(c7ccc(Oc8ccc9c(c8)C(=O)N(C8CCC(=O)NC8=O)C9=O)cc7)C6)C5)cc4C(F)(F)F)C3=O)c2)COC1 (stereo not drawn) [Example 64, 2-(2,6-dioxopiperidin-3-yl)-5-[4-(1′-{[2-(3-{3-[(4-methyl-4H-1,2,4-triazol-3-yl)methyl]oxetan-3-yl}phenyl)-3-oxo-7-(trifluoromethyl)-2,3-dihydro-1H-isoindol-5-yl]methyl}-[3,3′-biazetidin]-1-yl)phenoxy]-2,3-dihydro-1H-isoindole-1,3-dione]
Cn1cnnc1CC1(c2cccc(N3Cc4c(cc(CN5CCC(CN6CCC7(CC6)CN(c6cccc8c6CN(C6CCC(=O)NC6=O)C8=O)C7)CC5)cc4C(F)(F)F)C3=O)c2)COC1 (stereo not drawn) [Example 65, 3-(4-{7-[(1-{[2-(3-{3-[(4-methyl-4H-1,2,4-triazol-3-yl)methyl]oxetan-3-yl}phenyl)-3-oxo-7-(trifluoromethyl)-2,3-dihydro-1H-isoindol-5-yl]methyl}piperidin-4-yl)methyl]-2,7-diazaspiro[3.5]nonan-2-yl}-1-oxo-2,3-dihydro-1H-isoindol-2-yl)piperidine-2,6-dione]
Cn1cnnc1CC1(c2cccc(N3Cc4c(cc(CN5CCC(CN6CC7(CCN(c8ccc9c(c8)CN(C8CCC(=O)NC8=O)C9=O)CC7)C6)CC5)cc4C(F)(F)F)C3=O)c2)COC1 (stereo not drawn) [Example 66, 3-(5-{2-[(1-{[2-(3-{3-[(4-methyl-4H-1,2,4-triazol-3-yl)methyl]oxetan-3-yl}phenyl)-3-oxo-7-(trifluoromethyl)-2,3-dihydro-1H-isoindol-5-yl]methyl}piperidin-4-yl)methyl]-2,7-diazaspiro[3.5]nonan-7-yl}-1-oxo-2,3-dihydro-1H-isoindol-2-yl)piperidine-2,6-dione]
Cn1cnnc1CC1(c2cccc(N3Cc4c(cc(CN5CC(CN6CCN(C7CCN(c8ccc9c(c8)C(=O)N(C8CCC(=O)NC8=O)C9=O)CC7)CC6)C5)cc4C(F)(F)F)C3=O)c2)COC1 (stereo not drawn) [Example 67, 2-(2,6-dioxopiperidin-3-yl)-5-(4-{4-[(1-{[2-(3-{3-[(4-methyl-4H-1,2,4-triazol-3-yl)methyl]oxetan-3-yl}phenyl)-3-oxo-7-(trifluoromethyl)-2,3-dihydro-1H-isoindol-5-yl]methyl}azetidin-3-yl)methyl]piperazin-1-yl}piperidin-1-yl)-2,3-dihydro-1H-isoindole-1,3-dione]
Cn1cnnc1CC1(c2cccc(N3Cc4c(cc(CN5CC6(C5)CN(CC5CCN(c7ccc8c(c7)C(=O)N(C7CCC(=O)NC7=O)C8=O)CC5)C6)cc4C(F)(F)F)C3=O)c2)COC1 (stereo not drawn) [Example 68, 2-(2,6-dioxopiperidin-3-yl)-5-{4-[(6-{[2-(3-{3-[(4-methyl-4H-1,2,4-triazol-3-yl)methyl]oxetan-3-yl}phenyl)-3-oxo-7-(trifluoromethyl)-2,3-dihydro-1H-isoindol-5-yl]methyl}-2,6-diazaspiro[3.3]heptan-2-yl)methyl]piperidin-1-yl}-2,3-dihydro-1H-isoindole-1,3-dione]
Cn1cnnc1CC1(c2cccc(N3Cc4c(cc(CN5CC6(C5)CN(CC5CCN(c7cccc8c7C(=O)N(C7CCC(=O)NC7=O)C8=O)CC5)C6)cc4C(F)(F)F)C3=O)c2)COC1 (stereo not drawn) [Example 69, 2-(2,6-dioxopiperidin-3-yl)-4-{4-[(6-{[2-(3-{3-[(4-methyl-4H-1,2,4-triazol-3-yl)methyl]oxetan-3-yl}phenyl)-3-oxo-7-(trifluoromethyl)-2,3-dihydro-1H-isoindol-5-yl]methyl}-2,6-diazaspiro[3.3]heptan-2-yl)methyl]piperidin-1-yl}-2,3-dihydro-1H-isoindole-1,3-dione]
Cn1cnnc1CC1(c2cccc(N3Cc4c(cc(CN5CCC5CC5CCN(c6ccc7c(c6)C(=O)N(C6CCC(=O)NC6=O)C7=O)CC5)cc4C(F)(F)F)C3=O)c2)COC1 (stereo not drawn) [Example 70, 2-(2,6-dioxopiperidin-3-yl)-5-{4-[(1-{[2-(3-{3-[(4-methyl-4H-1,2,4-triazol-3-yl)methyl]oxetan-3-yl}phenyl)-3-oxo-7-(trifluoromethyl)-2,3-dihydro-1H-isoindol-5-yl]methyl}azetidin-2-yl)methyl]piperidin-1-yl}-2,3-dihydro-1H-isoindole-1,3-dione]
Cn1cnnc1CC1(c2cccc(N3Cc4c(cc(CN5CCC(CCC6CCN(c7ccc8c(c7)C(=O)N(C7CCC(=O)NC7=O)C8=O)CC6)CC5)cc4C(F)(F)F)C3=O)c2)COC1 (stereo not drawn) [Example 71, 2-(2,6-dioxopiperidin-3-yl)-5-{4-[2-(1-{[2-(3-{3-[(4-methyl-4H-1,2,4-triazol-3-yl)methyl]oxetan-3-yl}phenyl)-3-oxo-7-(trifluoromethyl)-2,3-dihydro-1H-isoindol-5-yl]methyl}piperidin-4-yl)ethyl]piperidin-1-yl}-2,3-dihydro-1H-isoindole-1,3-dione]
